Results as given in PubChem BioAssay (NCI).
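Method: 48-hour compound exposure of cells in 96-well plates, five concentrations, linear interpolation of endpoints. GI50 = concentration required for 50% inhibition of growth. The concentration for full growth arrest is given as TGI.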

Key:
Assay in all cases: NCI-60 cell line screen, 48 h
[1] = system: TK-10 renal
[2] = system: OVCAR-4 ovarian
[3] = system: HOP-62 NSCLC
[4] = system: 786-0 renal
[5] = system: UACC-257 melanoma
[6] = system: RXF 393 renal
[7] = system: HCT-15 colon
[8] = system: SF-295 CNS
[9] = system: HOP-92 NSCLC
[10] = system: NCI-H522 lung

Structure (SMILES) | GI50 [1] [µM] | TGI [1] [µM] | GI50 [2] [µM] | TGI [2] [µM] | GI50 [3] [µM] | TGI [3] [µM] | GI50 [4] [µM] | TGI [4] [µM] | GI50 [5] [µM] | TGI [5] [µM] | GI50 [6] [µM] | TGI [6] [µM] | GI50 [7] [µM] | TGI [7] [µM] | GI50 [8] [µM] | TGI [8] [µM] | GI50 [9] [µM] | TGI [9] [µM] | TGI [10] [µM] | GI50 [10] [µM]
CC/C(=C(/CC)c1ccc(O)cc1)c1ccc([O-])cc1.CC/C(=C(/CC)c1ccc(O)cc1)c1ccc([O-])cc1.O=C([CH-]C(=O)c1ccccc1)c1ccccc1.O=C([CH-]C(=O)c1ccccc1)c1ccccc1.[Ti+4] | 30.2 | 76.9 | 24.8 | > 100 | 14.7 | 28.3 | 13.7 | 33.1 | 15.1 | 35.9 | 10.7 | 25.7 | 6.8 | 32.3 | 17.9 | 35 | 14.2 | 27.2 | – | –
CCCC(C)C[C@@H](C)CC(C)/C=C(\C)c1oc(=O)c(C)c(O)c1C (stereo not given in full) (tested in a mixture with another compound) | – | 33.7 | – | 26.6 | – | 36.5 | – | 29.5 | – | 29.2 | – | 26.6 | – | – | – | 25.9 | – | – | 31.1 | –
O=C(Nc1ccc(F)cc1)C(=O)C(C1OC(=O)c2ccccc21)[N+](=O)[O-] (stereo not given) | – | > 100 | – | > 100 | – | > 100 | – | > 100 | – | > 100 | – | > 100 | – | > 100 | – | > 100 | – | > 100 | – | –
COc1ccc(-c2ccc(/C=N/n3c(COc4ccc(Cl)cc4Cl)nn(CN4CCN(C)CC4)c3=S)o2)c([N+](=O)[O-])c1 | 2.43 | 9.67 | 59.7 | > 100 | 29.6 | 79.5 | 21.4 | > 100 | 23.5 | 59.6 | 6.86 | 32.9 | 17 | 35.4 | 16.8 | 37.5 | – | – | > 100 | 44.5
C=CCN(CC=C)C(=O)c1cc(C)nc2c1c(=O)n(-c1ccccc1)c(=O)n2CC(O)CN1CCN(c2ncccn2)CC1 (stereo not given) | > 100 | > 100 | 80.3 | > 100 | 21.1 | > 100 | > 100 | > 100 | – | – | – | – | > 100 | > 100 | > 100 | > 100 | > 100 | > 100 | > 100 | > 100
O=C([O][Hg][CH2]C1COCC([CH2][Hg][O]C(=O)c2ccccc2)O1)c1ccccc1 (stereo not given) | 6.33 | 31.5 | 14.4 | 49.6 | 15.3 | 31.1 | 16.8 | 30.5 | 1.45 | 2.85 | 1.99 | 3.56 | – | – | 17.3 | 35.7 | 2.25 | 4.23 | – | –
O=c1[nH]c2c3ccccc3ccc2c2cc3c(cc12)OCO3 | – | > 100 | – | > 100 | – | > 100 | – | > 100 | – | > 100 | – | > 100 | – | > 100 | – | > 100 | – | – | > 100 | –
Cc1ccc(NC(=O)CC(=O)n2nc(-c3ccccc3)c(N=Nc3ccccc3Cl)c2-c2ccccc2)cc1 | – | > 100 | – | 87.2 | – | > 100 | – | > 100 | > 100 | > 100 | – | – | > 100 | > 100 | – | > 100 | – | 63 | > 100 | –
